What was measured:
blackgrass = assay: Test A postemergence; type: in vivo, Alopecurus myosuroides
Procedure, shortened: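 Visual injury scored 0–100 (100 = complete control) against untreated controls about 10 days after treatment in a greenhouse. Test chemicals, formulated with surfactant in non-phytotoxic solvent, were sprayed on soil preemergence or on 2-10 cm, one- to two-leaf plants postemergence.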

barnyardgrass = assay: Test B flooded paddy test; type: in vivo, Echinochloa crus-galli; settings: Flood, 250 g ai/ha; 0 to 100 scale where 0 is no effect and 100 is complete control
Procedure, shortened: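 2-leaf stage plants; pots flooded to 3 cm, compound added to paddy water, depth maintained. Greenhouse 13–15 d. Visual rating vs untreated controls, 0 (no effect) to 100 (complete control); dash = no result.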

galium = assay: Test C preemergence; type: in vivo, Galium aparine; settings: for Galium plant response rating: preemergence; for Plant response rating, Galium: Preemergence, 62 g ai/ha, scale 0 to 100, 0 no effect, 100 complete control
Procedure, shortened: (§1)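 Visual injury score versus untreated controls, 0 = no effect, 100 = complete control, taken 13 to 15 days after treatment in the greenhouse. Pre-emergence pots held loam/sand; post-emergence plants grew in sphagnum peat/vermiculite mix and were sprayed at the 1- to 4-leaf stage.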

corn = assay: Test C preemergence; type: in vivo, Zea mays; settings: for Corn plant response rating: preemergence; for Plant response rating, Corn: Preemergence, 62 g ai/ha, scale 0 to 100, 0 no effect, 100 complete control
Procedure, shortened: as §1

morningglory [1] = assay: Test C preemergence; type: in vivo, Ipomoea coccinea; settings: for Morningglory plant response rating: preemergence; for Plant response rating, Morningglory: Preemergence, 62 g ai/ha, scale 0 to 100, 0 no effect, 100 complete control
Procedure, shortened: as §1

yellow nutsedge = assay: Test C preemergence; type: in vivo, Cyperus esculentus; settings: for Nutsedge, Yellow plant response rating: preemergence; for Plant response rating, Nutsedge, Yellow: Preemergence, 62 g ai/ha, scale 0 to 100, 0 no effect, 100 complete control
Procedure, shortened: as §1

wheat, winter = assay: Test C postemergence; type: in vivo, Triticum aestivum; settings: for Plant response rating (0 to 100), Wheat: 16 g ai/ha, 0 is no effect, 100 is complete control; for Wheat plant response rating: 31 g ai/ha; for Wheat plant response rating / Plant response rating, Wheat: scale 0 to 100 (0 no effect, 100 complete control)
Procedure, shortened: as §1

lambsquarters = assay: Test C postemergence; type: in vivo, Chenopodium album; settings: for Plant response rating (0 to 100), Lambsquarters: 16 g ai/ha, 0 is no effect, 100 is complete control; for Lambsquarters plant response rating: 31 g ai/ha; for Lambsquarters plant response rating / Plant response rating, Lambsquarters: scale 0 to 100 (0 no effect, 100 complete control)
Procedure, shortened: as §1

morningglory [2] = assay: Test C postemergence; type: in vivo, Ipomoea coccinea; settings: for Plant response rating (0 to 100), Morningglory: 16 g ai/ha, 0 is no effect, 100 is complete control; for Morningglory plant response rating: 31 g ai/ha; for Morningglory plant response rating / Plant response rating, Morningglory: scale 0 to 100 (0 no effect, 100 complete control)
Procedure, shortened: as §1

ragweed = assay: Test C postemergence; type: in vivo, Ambrosia elatior; settings: for Plant response rating (0 to 100), Ragweed: 16 g ai/ha, 0 is no effect, 100 is complete control; for Ragweed plant response rating: 31 g ai/ha; for Ragweed plant response rating / Plant response rating, Ragweed: scale 0 to 100 (0 no effect, 100 complete control)
Procedure, shortened: as §1

soybean = assay: Test C postemergence; type: in vivo, Glycine max; settings: for Plant response rating (0 to 100), Soybean: 16 g ai/ha, 0 is no effect, 100 is complete control; for Soybean plant response rating: 31 g ai/ha; for Soybean plant response rating / Plant response rating, Soybean: scale 0 to 100 (0 no effect, 100 complete control)
Procedure, shortened: as §1

oilseed rape = assay: Test C postemergence; type: in vivo, Brassica napus; settings: for Plant response rating (0 to 100), Oilseed Rape: 16 g ai/ha, 0 is no effect, 100 is complete control; for Oilseed Rape plant response rating: 31 g ai/ha; for Oilseed Rape plant response rating / Plant response rating, Oilseed Rape: scale 0 to 100 (0 no effect, 100 complete control)
Procedure, shortened: as §1

[3] = 125 g ai/ha, 0 to 100 scale, 0 no effect, 100 complete control
[4] = 16 g ai/ha, scale 0 to 100 (0 no effect, 100 complete control)
[5] = 125 g ai/ha, scale 0 (no effect) to 100 (complete control)
[6] = postemergence, visual rating, 13 to 15 days
[7] = 125 g ai/ha, postemergence, visual rating
[8] = Postemergence, 62 g ai/ha, 13 to 15 days

| Structure (SMILES) | Plant response rating, Blackgrass (blackgrass; [3]) | Plant response rating, Barnyardgrass (barnyardgrass) | Galium plant response rating (galium; [4]) | Galium plant response rating (galium; [5]) | Plant response rating, Galium (galium) | Corn plant response rating (corn; [4]) | Corn plant response rating (corn; [5]) | Plant response rating, Corn (corn) | Morningglory plant response rating (morningglory [1]; [4]) | Morningglory plant response rating (morningglory [1]; [5]) | Plant response rating, Morningglory (morningglory [1]) | Nutsedge, Yellow plant response rating (yellow nutsedge; [4]) | Nutsedge, Yellow plant response rating (yellow nutsedge; [5]) | Plant response rating, Nutsedge, Yellow (yellow nutsedge) | Plant response rating (0 to 100), Wheat (wheat, winter; postemergence) | Wheat plant response rating (wheat, winter; [6]) | Plant response rating, Wheat (wheat, winter; [7]) | Plant response rating, Wheat (wheat, winter; [8]) | Plant response rating (0 to 100), Lambsquarters (lambsquarters; postemergence) | Lambsquarters plant response rating (lambsquarters; [6]) | further results |
| --- | --- | --- | --- | --- | --- | --- | --- | --- | --- | --- | --- | --- | --- | --- | --- | --- | --- | --- | --- | --- | --- |
| FC(F)Oc1cnn(-c2c(Cl)cccc2Oc2ncc(Cl)cn2)c1 [Compound 258] | 50 | 60 | 80 | 100 | 100 | 0 | 65 | 45 | 10 | 98 | 45 | 5 | 100 | 95 | 0 | 0 | 5 | 5 | 50 | 65 | Plant response rating, Blackgrass (blackgrass; 31 g ai/ha, 0 to 100 scale, 0 no effect, 100 complete control): 20; Plant response rating, Lambsquarters (lambsquarters; [7]): 90; Plant response rating, Lambsquarters (lambsquarters; [8]): 90; Plant response rating (0 to 100), Morningglory (morningglory [2]; postemergence): 65; Morningglory plant response rating (morningglory [2]; [6]): 85; Plant response rating, Morningglory (morningglory [2]; [7]): 95; Plant response rating, Morningglory (morningglory [2]; [8]): 85; Plant response rating (0 to 100), Ragweed (ragweed; postemergence): 25; Ragweed plant response rating (ragweed; [6]): 50; Plant response rating, Ragweed (ragweed; [7]): 75; Plant response rating, Ragweed (ragweed; [8]): 50; Plant response rating (0 to 100), Soybean (soybean; postemergence): 50; Soybean plant response rating (soybean; [6]): 75; Plant response rating, Soybean (soybean; [7]): 95; Plant response rating, Soybean (soybean; [8]): 70; Plant response rating (0 to 100), Oilseed Rape (oilseed rape; postemergence): 70; Oilseed Rape plant response rating (oilseed rape; [6]): 85; Plant response rating, Oilseed Rape (oilseed rape; [7]): 98; Plant response rating, Oilseed Rape (oilseed rape; [8]): 95 |
| N#Cc1cn(-c2c(C#N)cccc2Oc2ncc(Cl)cn2)nn1 [Compound 273] | 60 | 0 | 0 | 98 | 95 | 0 | 35 | 45 | 5 | 85 | 55 | 0 | 35 | 5 | 0 | 0 | 10 | 0 | 25 | 40 | Plant response rating, Blackgrass (blackgrass; 500 g ai/ha, 0 to 100 scale where 0 is no effect and 100 is complete control): 80; Plant response rating, Lambsquarters (lambsquarters; [7]): 80; Plant response rating, Lambsquarters (lambsquarters; [8]): 85; Plant response rating (0 to 100), Morningglory (morningglory [2]; postemergence): 60; Morningglory plant response rating (morningglory [2]; [6]): 65; Plant response rating, Morningglory (morningglory [2]; [7]): 85; Plant response rating, Morningglory (morningglory [2]; [8]): 65; Plant response rating (0 to 100), Ragweed (ragweed; postemergence): 30; Ragweed plant response rating (ragweed; [6]): 55; Plant response rating, Ragweed (ragweed; [7]): 80; Plant response rating, Ragweed (ragweed; [8]): 55; Plant response rating (0 to 100), Soybean (soybean; postemergence): 60; Soybean plant response rating (soybean; [6]): 70; Plant response rating, Soybean (soybean; [7]): 90; Plant response rating, Soybean (soybean; [8]): 90; Plant response rating (0 to 100), Oilseed Rape (oilseed rape; postemergence): 0; Oilseed Rape plant response rating (oilseed rape; [6]): 0; Plant response rating, Oilseed Rape (oilseed rape; [7]): 25; Plant response rating, Oilseed Rape (oilseed rape; [8]): 5 |
